One assay concerns Aβ / γ-secretase. The assay is described as follows: Aβ levels in primary rat cortical neurons infected with Semliki Forest virus encoding human APP695, C99 or C111. In kind it is cell-based. How it is done: The mechanism of Aβ modulation was tested using C99 (and C111) that are truncated constructs generated from APP. Unlike APP, C99/C111 are direct substrates for γ-secretase. With both constructs it is possible to directly assay for γ-secretase activity, while with APP this is not possible. Both constructs are—as compared to APP—inefficient substrates for […]. Synergistc effects were also evaluated with CDX (methyl-β-cyclodextrin), an agent which extracts cholesterol from the plasma membrane. CDX inhibits also Aβ production CDX-treated cells were treated in addition to the respective muscarinic agonist for 5 min to reduce the cholesterol content.

Assay [1] can be described thus: Morris water maze in AF64A-injected rats. In kind it is in vivo, rat. How it is done: AF64A or saline-injected (6 months old) Sprague-Dawley rats were tested in the Morris Water Maze (MWM) task. The paradigm used assesses spatial learning abilities in a reference memory regimen, and involves training (days 1-4), transfer test (Probe trial—day 4, 3 min following the last training trial) and reversal test (day 5).
Drugs and PBS were administered once a day for 5 days before starting the behavioral testing, and then for the duration of the 5-day experiment, 30 min before testing.
The three measures, escape latency, path length and swimming speed were analyzed by MANOVA, followed by simple main effects contrast analysis.

For a further assay, the target named is T1, human M3 receptor (Homo sapiens, UniProt P20309).
T1 construct: expressed in transfected cells
T1 sequence (P20309 whole entry): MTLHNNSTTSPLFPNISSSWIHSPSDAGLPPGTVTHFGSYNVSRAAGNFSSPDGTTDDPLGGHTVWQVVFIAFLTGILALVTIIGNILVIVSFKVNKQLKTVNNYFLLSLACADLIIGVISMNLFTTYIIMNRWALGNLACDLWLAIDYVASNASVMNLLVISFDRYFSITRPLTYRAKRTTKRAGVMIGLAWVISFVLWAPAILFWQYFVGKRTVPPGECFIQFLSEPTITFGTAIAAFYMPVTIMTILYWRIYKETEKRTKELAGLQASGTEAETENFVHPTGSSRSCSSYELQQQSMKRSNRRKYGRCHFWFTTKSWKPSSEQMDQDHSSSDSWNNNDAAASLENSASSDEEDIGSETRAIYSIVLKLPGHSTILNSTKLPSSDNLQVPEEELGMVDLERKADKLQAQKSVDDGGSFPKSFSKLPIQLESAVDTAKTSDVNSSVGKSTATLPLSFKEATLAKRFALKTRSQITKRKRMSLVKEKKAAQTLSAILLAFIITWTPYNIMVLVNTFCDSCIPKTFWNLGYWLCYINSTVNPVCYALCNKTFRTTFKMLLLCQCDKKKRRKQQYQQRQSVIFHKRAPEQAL
The assay is described as follows: Arachidonic acid (AA) release, human M3. In kind it is cell-based.

`CC[C@@H]1SC2(CCN(C)CC2)NC1=O` [AF267B, (S)-2-ethyl-8-methyl-1-thia-4,8-diaza-spiro[4.5]decan-3-one]: the “reduction of the release of Aβ-like fragments (3-4 Kda)” value with Aβ / γ-secretase is “approximately 50%”. Besides, the p3 fragment entry in the assay with Aβ / γ-secretase (1 mM, vs control) is “complete loss”. In addition, the “Aβ with cholesterol lowering agent CDX” value in the assay with Aβ / γ-secretase (with CDX (5 mM)) is listed as “undetectable Aβ levels”. Moreover, in assay [1] (AF64A rats, 1 mg/kg), the reversal test entry was “tendency for improvement” and the “training, escape latency” value is “tendency for improvement”. Moreover, in assay [1] (AF64A rats, 3 mg/kg), the reversal test entry is listed as “tendency for impairment” and the training performance entry is on record as “tended to impair performance”. Besides, the “learning (training)” value in assay [1] (AF64A rats, 0.3, 1, 3 mg/kg po) is reported as “no significant effect on learning”. Besides, the “probe trial, escape latency” value in assay [1] (AF64A rats, all doses) is reported as “complete spatial bias”.
On to `CC[C@@H]1SC2(CCNCC2)NC1=O` [AF292, (S)-2-Ethyl-1-thia-4,8-diaza-spiro[4.5]decan-3-one], for which the “AA release, agonist activity” value on human M3 receptor is “inactive as an agonist”.

(Values after patent US7439251B2, “Methods and compositions for treatment of central and peripheral nervous system disorders and novel compounds useful therefor” (Israel Institute for Biological Research, priority 2002, dated 2008).)
